According to patent US10821115B2, “Compounds that inhibit Mcl-1 protein” (priority 2017, dated 2020):
Like-named read-outs stand apart in the source and are kept apart here.

Key:
[1] = tested on: human multiple myeloma cell line, OPM-2; assay: Cell viability assay (OPM-2 10 FBS), CellTiter-Glo; type: cell-based
Outline: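 3000 cells/well, RPMI 1640 + 10% FBS; serial compound dilutions, 16 h, 37 °C/5% CO2.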

[2] = target: recombinant human Mcl-1 (residues 171-327) / Bim interaction (Homo sapiens (Human), UniProt Q07820); assay: biochemical; type: binding; conditions: read-out: Mcl-1 HTRF IC50
Sequence of recombinant human Mcl-1 (residues 171-327) / Bim interaction (Q07820 171-327): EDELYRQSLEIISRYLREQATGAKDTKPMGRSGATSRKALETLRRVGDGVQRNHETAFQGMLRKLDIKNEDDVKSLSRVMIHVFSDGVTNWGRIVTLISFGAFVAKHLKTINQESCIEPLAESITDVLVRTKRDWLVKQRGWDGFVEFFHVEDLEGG

[3] = Homo sapiens, OPM-2, 16 h, read-out: OPM-2 10% FBS IC50 IP, OPM-2 cells, 10% FBS, 16 h, CellTiter-Glo
[4] = TR-FRET, Mcl-1(171-327) / biotin-Bim (51-76)
[5] = read-out: OPM-2 10% FBS IC50 IP, OPM-2 cells, 10% FBS, 16 h, CellTiter-Glo
[6] = Homo sapiens, OPM-2, 16 h, read-out: OPM-2 10% FBS IC50 IP, OPM-2 cells, 10% FBS, 16 h incubation
[7] = 0.1 nM Mcl-1(171-327), 0.05 nM biotin-Bim (51-76)

Structure (SMILES): COCC[C@@H]1[C@@H](C)C/C=C/[C@](C=O)(OC)[C@@H]2CC[C@H]2CN2C[C@@]3(CCCc4cc(Cl)ccc43)COc3ccc(cc32)C(=O)NS1(=O)=O [Example 100520, (1S,3′R,6′R,7′S,8′E,11′S,12′R)-6-chloro-7′-methoxy-12′-(2-methoxyethyl)-11′-methyl-15′-oxo-3,4-dihydro-2H-spiro[naphthalene-1,22′-[20]oxa[13]thia[1,14]diazatetracyclo [14.7.2.0~3,6~.0~19,24~]pentacosa[8,16,18,24]tetraene]-7′-carbaldehyde 13′,13′-dioxide]
- IC50 [1, 3]: 1690 nM
- IC50 [2, 4]: 0.549 nM

Structure (SMILES): COCC[C@@H]1[C@@H](C)C/C=C/[C@](OC)(C2SCCCS2)[C@@H]2CC[C@H]2CN2C[C@@]3(CCCc4cc(Cl)ccc43)COc3ccc(cc32)C(=O)NS1(=O)=O [Example 100515, (1S,3′R,6′R,7′R,8′E,11′S,12′R)-6-chloro-7′-(1,3-dithian-2-yl)-7′-methoxy-12′-(2-methoxyethyl)-11′-methyl-3,4-dihydro-2H,15′H-spiro[naphthalene-1,22′-[20]oxa[13]thia[1,14]diazatetracyclo [14.7.2.0~3,6~.0~19,24~]pentacosa[8,16,18,24]tetraen]-15′-one 13′,13′-dioxide]
- IC50 [1, 3]: 585 nM
- IC50 [2, 4]: 0.132 nM

Structure (SMILES): COCCC[C@]1(O)/C=C/C[C@H](C)[C@@H](C)S(=O)(=O)NC(=O)c2ccc3c(c2)N(C[C@@H]2CC[C@H]21)C[C@@]1(CCCc2cc(Cl)ccc21)CO3 [Example 100160, (1S,3′R,6′R,7′S,8′E,11′S,12′R)-6-chloro-7′-hydroxy-7′-(3-methoxypropyl)-11′,12′-dimethyl-3,4-dihydro-2H,15′H-spiro[naphthalene-1,22′-[20]oxa[13]thia[1,14]diazatetracyclo [14.7.2.0~3,6~.0~19,24~]pentacosa[8,16,18,24]tetraen]-15′-one 13′,13′-dioxide]
- IC50 [1, 3]: 78 nM
- IC50 [2, 4]: 0.169 nM

Structure (SMILES): COC[C@]1(OC)CCC[C@H](C)[C@@H](C)S(=O)(=O)NC(=O)c2ccc3c(c2)N(C[C@@H]2CC[C@H]21)C[C@@]1(CCCc2cc(Cl)ccc21)CO3 [Example 100225, (1S,3′R,6′R,7′S,11′S,12′R)-6-chloro-7′-methoxy-7′-(methoxymethyl)-11′,12′-dimethyl-3,4-dihydro-2H,15′H-spiro[naphthalene-1,22′-[20]oxa[13]thia[1,14]diazatetracyclo [14.7.2.0~3,6~.0~19,24~]pentacosa[16,18,24]trien]-15′-one 13′,13′-dioxide]
- IC50 [1, 5]: 882 nM
- IC50 [2, 4]: 0.639 nM

Structure (SMILES): CCO[C@@]1(CN2CCN(C3COC3)CC2)/C=C/C[C@H](C)[C@@H](C)S(=O)(=O)NC(=O)c2ccc3c(c2)N(C[C@@H]2CC[C@H]21)C[C@@]1(CCCc2cc(Cl)ccc21)CO3 [Example 106, (1S,3′R,6′R,7′S,8′E,11′S,12′R)-6-chloro-7′-ethoxy-11′12′-dimethyl-7′-((4-(3-oxetanyl)-1-piperazinyl)methyl)-3,4-dihydro-2H,15′H-spiro[naphthalene-1,22′-[20]oxa[13]thia[1,14]diazatetracyclo [14.7.2.0~3,6~.0~19,24~]pentacosa[8,16,18,24]tetraen]-15′-one 13′,13′-dioxide]
- IC50 [1, 6]: 308 nM
- IC50 [2, 7]: 0.299 nM

Structure (SMILES): CO[C@@]1(c2cnccn2)/C=C/C[C@H](C)[C@@H](C)S(=O)(=O)NC(=O)c2ccc3c(c2)N(C[C@@H]2CC[C@H]21)C[C@@]1(CCCc2cc(Cl)ccc21)CO3 (single isomer, unassigned) [Example 100379]
- IC50 [1, 3]: 71 nM
- IC50 [2, 4]: 0.06 nM

Structure (SMILES): C[C@@H]1[C@@H](C)C/C=C/[C@@](O)(Cc2ccncn2)[C@@H]2CC[C@H]2CN2C[C@@]3(CCCc4cc(Cl)ccc43)COc3ccc(cc32)C(=O)NS1(=O)=O [Example 100151, (1S,3′R,6′R,7′S,8′E,11′S,12′R)-6-chloro-7′-hydroxy-11′,12′-dimethyl-7′-(4-pyrimidinylmethyl)-3,4-dihydro-2H,15′H-spiro[naphthalene-1,22′-[20]oxa[13]thia[1,14]diazatetracyclo [14.7.2.0~3,6~.0~19,24~]pentacosa[8,16,18,24]tetraen]-15′-one 13′,13′-dioxide]
- IC50 [1, 5]: 71 nM
- IC50 [2, 4]: 0.12 nM

Structure (SMILES): CO[C@]1(CN(C)CCN2CCOCC2)/C=C/C[C@H](C)[C@@H](C)S(=O)(=O)NC(=O)c2ccc3c(c2)N(C[C@@H]2CC[C@H]21)C[C@@]1(CCCc2cc(Cl)ccc21)CO3 [Example 37, (1S,3′R,6′R,7′R,8′E,11′S,12′R)-6-chloro-7′-methoxy-11′,12′-dimethyl-7′-((methyl(2-(4-morpholinyl)ethyl)amino)methyl)-3,4-dihydro-2H,15′H-spiro[naphthalene-1,22′-[20]oxa[13]thia[1,14]diazatetracyclo [14.7.2.0~3,6~.0~19,24~]pentacosa[8,16,18,24]tetraen]-15′-one 13′,13′-dioxide]
- IC50 [1, 6]: 643 nM
- IC50 [2, 7]: 0.615 nM

Structure (SMILES): C[C@@H]1[C@@H](C)C/C=C/[C@@](O)(C#CCCN(C)C)[C@@H]2CC[C@H]2CN2C[C@@]3(CCCc4cc(Cl)ccc43)COc3ccc(cc32)C(=O)NS1(=O)=O [Example 100308, (1S,3′R,6′R,7′S,8′E,11′S,12′R)-6-chloro-7′-(4-(dimethylamino)-1-butyn-1-yl)-7′-hydroxy-11′,12′-dimethyl-3,4-dihydro-2H,15′H-spiro[naphthalene-1,22′-[20]oxa[13]thia[1,14]diazatetracyclo [14.7.2.0~3,6~.0~19,24~]pentacosa[8,16,18,24]tetraen]-15′-one 13′,13′-dioxide]
- IC50 [1, 5]: 1170 nM
- IC50 [2, 4]: 0.033 nM

Structure (SMILES): CO[C@@]1(CN2CCc3cncnc3C2)/C=C/C[C@H](C)[C@@H](C)S(=O)(=O)NC(=O)c2ccc3c(c2)N(C[C@@H]2CC[C@H]21)C[C@@]1(CCCc2cc(Cl)ccc21)CO3 [Example 211]
- IC50 [1, 6]: 156 nM
- IC50 [2, 7]: 0.147 nM

Structure (SMILES): COC[C@@H]1[C@@H](C)C/C=C/[C@](CN2CCN(C(C)C)CC2)(OC)[C@@H]2CC[C@H]2CN2C[C@@]3(CCCc4cc(Cl)ccc43)COc3ccc(cc32)C(=O)NS1(=O)=O [Example 173]
- IC50 [1, 6]: 323 nM
- IC50 [2, 7]: 0.173 nM

Structure (SMILES): COCC[C@@H]1[C@@H](C)C/C=C/[C@](CN2CCN(Cc3noc(C)n3)CC2)(OC)[C@@H]2CC[C@H]2CN2C[C@@]3(CCCc4cc(Cl)ccc43)COc3ccc(nc32)C(=O)NS1(=O)=O [Example 26, (1S,3′R,6′R,7′S,8′E,11′S,12′R)-6-chloro-7′-methoxy-12′-(2-methoxyethyl)-11′-methyl-7′-((4-((5-methyl-1,2,4-oxadiazol-3-yl)methyl)-1-piperazinyl)methyl)-3,4-dihydro-2H,15′H-spiro[naphthalene-1,22′-[20]oxa[13]thia[1,14,25]triazatetracyclo [14.7.2.0~3,6~.0~19,24~]pentacosa[8,16,18,24]tetraen]-15′-one 13′,13′-dioxide]
- IC50 [1, 6]: 32 nM
- IC50 [2, 7]: 0.079 nM

Structure (SMILES): CO[C@]1(CN2CCN(C3COCCOC3)CC2)/C=C/C[C@H](C)[C@@H](C)S(=O)(=O)NC(=O)c2ccc3c(c2)N(C[C@@H]2CC[C@H]21)C[C@@]1(CCCc2cc(Cl)ccc21)CO3 [Example 342, (1S,3′R,6′R,7′R,8′E,11′S,12′R)-6-chloro-7′-((4-(1,4-piperazinyl)methyl)-7′-dioxepan-6-yl)-1-methoxy-11′,12′-dimethyl-3,4-dihydro-2H,15′H-spiro[naphthalene-1,22′-[20]oxa[13]thia[1,14]diazatetracyclo [14.7.2.0~3,6~.0~19,24~]pentacosa[8,16,18,24]tetraen]-15′-one 13′,13′-dioxide]
- IC50 [1, 6]: 104 nM
- IC50 [2, 7]: 0.089 nM

Structure (SMILES): CO[C@]1(CN2C[C@H]3C[C@@H]2CN3C(C)C)/C=C/C[C@H](C)[C@@H](C)S(=O)(=O)NC(=O)c2ccc3c(c2)N(C[C@@H]2CC[C@H]21)C[C@@]1(CCCc2cc(Cl)ccc21)CO3 [Example 314, (1S,3′R,6′R,7′R,8′E,11′S,12′R)-6-chloro-7′-methoxy-11′,12′-dimethyl-7′-(((1R,4R)-5-(1-methylethyl)-2,5-diazabicyclo[2.2.1]hept-2-yl)methyl)-3,4-dihydro-2H,15′H-spiro[naphthalene-1,22′-[20]oxa[13]thia[1,14]diazatetracyclo [14.7.2.0~3,6~.0~19,24~]pentacosa[8,16,18,24]tetraen]-15′-one 13′,13′-dioxide]
- IC50 [1, 6]: 126 nM
- IC50 [2, 7]: 0.118 nM

Structure (SMILES): CO[C@@]1(CN2CCN(C3CN(C)C3)CC2)/C=C/C[C@H](C)[C@@H](C)S(=O)(=O)NC(=O)c2ccc3c(c2)N(C[C@@H]2CC[C@H]21)C[C@@]1(CCCc2cc(Cl)ccc21)CO3 [Example 282, (1S,3′R,6′R,7′S,8′E,11′S,12′R)-6-chloro-7′-methoxy-11′,12′-dimethyl-7′-((4-(1-methyl-3-azetidinyl)-1-piperazinyl)methyl)-3,4-dihydro-2H,15′H-spiro[naphthalene-1,22′-[20]oxa[13]thia[1,14]diazatetracyclo [14.7.2.0~3,6~.0~19,24~]pentacosa[8,16,18,24]tetraen]-15′-one 13′,13′-dioxide]
- IC50 [1, 6]: 486 nM
- IC50 [2, 7]: 0.118 nM

Structure (SMILES): CCO[C@@]1(CN2CCN3CCOC[C@@H]3C2)/C=C/C[C@H](C)[C@@H](C)S(=O)(=O)NC(=O)c2ccc3c(c2)N(C[C@@H]2CC[C@H]21)C[C@@]1(CCCc2cc(Cl)ccc21)CO3 [Example 101, (1S,3′R,6′R,7′S,8′E,11′S,12′R)-6-chloro-7′-ethoxy-7′-((9aS)-hexahydropyrazino[2,1-c][1,4]oxazin-8(1H)-ylmethyl)-11′,12′-dimethyl-3,4-dihydro-2H,15′H-spiro[naphthalene-1,22′-[20]oxa[13]thia[1,14]diazatetracyclo [14.7.2.0~3,6~.0~19,24~]pentacosa[8,16,18,24]tetraen]-15′-one 13′,13′-dioxide]
- IC50 [1, 6]: 263 nM
- IC50 [2, 7]: 0.196 nM
